# Data taken from patent US11912683B1 (priority 2023, dated 2024).
# Key:
# [1] = system: Mycobacterium tuberculosis H37Rv; test: Anti-tubercular activity, colorimetric Resazurin Microplate Assay (REMA), H37Rv; assay type: cell-based; conditions: 192 h, read-out: Anti-tubercular activity against Mycobacterium tuberculosis H37Rv (MIC)
Compound,MIC [1] [µg/mL],melting point [°C]
"COC(=O)C1=C(C)NC(=O)NC1c1ccc([N+](=O)[O-])cc1[N+](=O)[O-] (stereo not drawn) [DHPM-KN4, Methyl 4-(2,4-dinitrophenyl)-6-methyl-2-oxo-1,2,3,4-tetrahydropyrimidine-5-carboxylate]",16,210
"CC1=C(C(=O)N2CCCCC2)C(c2ccc(F)cc2)NC(=S)N1 (stereo not drawn) [DHPM-KN2, (4-(4-Fluorophenyl)-6-methyl-2-thioxo-1,2,3,4-tetrahydropyrimidin-5-yl)(piperidin-1-yl)methanone]",,234
"CC1=C(C(=O)N2CCCCC2)C(c2ccc([N+](=O)[O-])cc2)NC(=S)N1 (stereo not drawn) [DHPM-KN5, (6-Methyl-4-(4-nitrophenyl)-2-thioxo-1,2,3,4-tetrahydropyrimidin-5-yl)(piperidin-1-yl)methanone]",8,230
"COC(=O)C1=C(C)NC(=S)NC1c1ccc(C(F)(F)F)cc1 (stereo not drawn) [DHPM-KN3, Methyl 6-methyl-2-thioxo-4-(4-(trifluoromethyl)phenyl)-1,2,3,4-tetrahydropyrimidine-5-carboxylate]",,190
"CC1=C(C(=O)N2CCCCC2)C(c2ccc(Br)cc2)NC(=S)N1 (stereo not drawn) [DHPM-KN6, (4-(4-Bromophenyl)-6-methyl-2-thioxo-1,2,3,4-tetrahydropyrimidin-5-yl)(piperidin-1-yl)methanone]",> 64,258
"CC1=C(C(=O)N2CCCCC2)C(c2ccc(C(F)(F)F)cc2)NC(=S)N1 (stereo not drawn) [DHPM-KN10, (6-Methyl-2-thioxo-4-(4-(trifluoromethyl)phenyl)-1,2,3,4-tetrahydropyrimidin-5-yl)(piperidin-1-yl)methanone]",128,172
"CC1=C(C(=O)N2CCCCC2)C(c2ccccc2C)NC(=S)N1 (stereo not drawn) [DHPM-KN8, (6-Methyl-2-thioxo-4-(o-tolyl)-1,2,3,4-tetrahydropyrimidin-5-yl)(piperidin-1-yl)methanone]",128,260
"CC1=C(C(=O)N2CCCCC2)C(c2ccc(O)cc2)NC(=S)N1 (stereo not drawn) [DHPM-KN11, (4-(4-Hydroxyphenyl)-6-methyl-2-thioxo-1,2,3,4-tetrahydropyrimidin-5-yl)(piperidin-1-yl)methanone]",,274
"CC1=C(C(=O)N2CCCCC2)C(c2ccccc2O)NC(=S)N1 (stereo not drawn) [DHPM-KN12, (4-(2-Hydroxyphenyl)-6-methyl-2-thioxo-1,2,3,4-tetrahydropyrimidin-5-yl)(piperidin-1-yl)methanone]",,223
"COc1ccc(C2NC(=S)NC(C)=C2C(=O)N2CCCCC2)cc1 (stereo not drawn) [DHPM-KN7, (4-(4-Methoxyphenyl)-6-methyl-2-thioxo-1,2,3,4-tetrahydropyrimidin-5-yl)(piperidin-1-yl)methanone]",> 64,124
"CC1=C(C(=O)N2CCCC2)C(c2ccccc2)NC(=S)N1 (stereo not drawn) [DHPM-KN14, (6-Methyl-4-phenyl-2-thioxo-1,2,3,4-tetrahydropyrimidin-5-yl)(pyrrolidin-1-yl)methanone]",,198
"CC1=C(C(=O)N2CCCCC2)C(c2ccc(Cl)cc2)NC(=S)N1 (stereo not drawn) [DHPM-KN9, (4-(4-Chlorophenyl)-6-methyl-2-thioxo-1,2,3,4-tetrahydropyrimidin-5-yl)(piperidin-1-yl)methanone]",,218
"CC1=C(C(=O)N2CCCCC2)C(c2ccccc2)NC(=S)N1 (stereo not drawn) [DHPM-KN1, (6-Methyl-4-phenyl-2-thioxo-1,2,3,4-tetrahydropyrimidin-5-yl)(piperidin-1-yl)methanone]",16,240
"CC1=C(C(=O)N2CCCCC2)C(c2ccc(O)c(O)c2)NC(=S)N1 (stereo not drawn) [DHPM-KN13, (4-(3,4-Dihydroxyphenyl)-6-methyl-2-thioxo-1,2,3,4-tetrahydropyrimidin-5-yl)(piperidin-1-yl)methanone]",,173
